Measurements as given in patent US8614324B2, “Filamin A binding anti-inflammatory and analgesic” (priority 2008, dated 2013).

Target: T1, mu opiate receptor (MOR) (Rattus norvegicus, UniProt P33535)
T1 construct: from tissue; host or cells: striatal membrane preparation (rat striatum)
Assay: MOR agonist activity, [35S]GTPγS binding assay using striatal membranes
Assay type: biochemical
Set-up: MOR agonist activity, [35S]GTPγS binding to Gαo: reference not given here
Description: To assess the mu opiate receptor (MOR) agonist activity of positive compounds from the FLNA screening, compounds were tested in a [^35S]GTPγS binding assay using striatal membranes.
Striatal tissue was homogenized in 10 volumes of ice cold 25 mM HEPES buffer, pH 7.4, which contained 1 mM EGTA, 100 mM sucrose, 50 μg/ml leupeptin, 0.04 mM PMSF, 2 μg/ml soybean trypsin inhibitor and 0.2% 2-mercaptoethanol. The homogenates were centrifuged at 800×g for 5 minutes and the supernatants were centrifuged at 49,000×g for 20 minutes. The resulting pellets were suspended in 10 volume of reaction buffer, which contained 25 mM HEPES, pH 7.5, 100 mM NaCl, 50 μg/ml leupeptin, 2 μg/ml soybean trypsin inhibitor, 0.04 mM PMSF and 0.02% […].
The resultant striatal membrane preparation (200 μg) was admixed and maintained (incubated) at 30° C. for 5 minutes in reaction buffer as above that additionally contained 1 mM MgCl2 and 0.5 nM [^35S]GTPγS (0.1 μCi/assay, PerkinElmer Life and Analytical Sciences) in a total volume of 250 μl and continued for 5 minutes in the absence or presence of 0.1-10 μM of an assayed compound of interest. The reaction was terminated by dilution with 750 μl of ice-cold reaction buffer that contained 20 mM MgCl2 and 1 mM EGTA and immediate centrifugation at 16,000×g for 5 minutes.
The resulting pellet was solubilized by sonicating for 10 seconds in 0.5 ml of immunoprecipitation buffer containing 0.5% digitonin, 0.2% sodium cholate and 0.5% NP-40. Normal rabbit serum (1 μl) was added to 1 ml of lysate and incubated at 25° C. for 30 minutes. Nonspecific immune complexes were removed by incubation with 25 μl of protein A/G-conjugated agarose beads at 25° C. for 30 minutes followed by centrifugation at 5,000×g at 4° C. for 5 minutes. The supernatant was divided and separately incubated at 25° C. for 30 minutes with antibodies raised against Gαo proteins (1:1,000 dilutions).
The immunocomplexes so formed were collected by incubation at 25° C. for 30 minutes with 40 μl of agarose-conjugated protein A/G beads and centrifugation at 5,000×g at 4° C. for 5 minutes. The pellet was washed and suspended in buffer containing 50 mM Tris-HCl, pH 8.0, and 1% NP-40. The radioactivity in the suspension was determined by liquid scintillation spectrometry. […] DAMGO (H-Tyr-D-Ala-Gly-N-MePhe-Gly-OH; 1 or 10 μM) was used as a positive control.

[1] = 0.1 μM compound, striatal membranes
[2] = 1 μM compound + BFNA (1 μM β-funaltrexamine)
[3] = 1 μM compound, striatal membranes

T1 sequence (P33535 whole entry): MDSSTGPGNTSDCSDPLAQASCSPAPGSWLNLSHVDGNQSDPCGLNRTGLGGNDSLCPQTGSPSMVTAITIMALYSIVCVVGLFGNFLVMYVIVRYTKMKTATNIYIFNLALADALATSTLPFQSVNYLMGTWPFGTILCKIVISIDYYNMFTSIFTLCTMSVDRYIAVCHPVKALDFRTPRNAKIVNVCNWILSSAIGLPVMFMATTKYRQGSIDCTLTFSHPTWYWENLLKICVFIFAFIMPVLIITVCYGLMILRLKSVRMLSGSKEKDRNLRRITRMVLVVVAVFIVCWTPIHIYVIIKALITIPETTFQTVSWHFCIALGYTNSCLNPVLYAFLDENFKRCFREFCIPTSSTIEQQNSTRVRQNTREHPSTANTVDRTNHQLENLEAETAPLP

SMILES	MOR agonist activity, [35S]GTPγS binding to Gαo [1] [%]	MOR agonist activity, [35S]GTPγS binding to Gαo [2] [%]	MOR agonist activity, [35S]GTPγS binding to Gαo [3] [%]
CC(=O)c1ccc(S(=O)(=O)N2CCOC23CCNCC3)cc1 [Compound C0046]	286.2	156.8	492.9
COc1ccc(S(=O)(=O)N2CCOC23CCN(CC2CC2)CC3)cc1 [Compound C0090M]	237.0	41.0	341.0
CC(=O)c1ccc(S(=O)(=O)N2CC(=O)NC23CCNCC3)cc1 [Compound C0086M]	206.8	152.3	265.3
C[C@@H](NC(=O)[C@@H](N)Cc1ccc(O)cc1)C(=O)NCC(=O)N(C)[C@@H](Cc1ccccc1)C(=O)NCCO [DAMGO, reference compound]	168.5	53.2	266.1
CC(=O)N1CCSC12CCN(S(=O)(=O)c1ccc([N+](=O)[O-])cc1)CC2 [Compound C0050]	110.3	59.0	127.6
CC(=O)c1ccc(S(=O)(=O)N2CCC3(CC2)OCCN3S(C)(=O)=O)cc1 [Compound C0056]	98.6	86.3	193.4
O=C1CN(C2CCc3ccccc3C2)C2(CCN(S(=O)(=O)c3ccccc3)CC2)N1 (stereo not drawn) [C0136M(P5)]	176.8	74.5	237.3
COc1ccc(S(=O)(=O)N2CCC3(CC2)NCCC(=O)N3)cc1 [Compound C0142M]	143.7	98.7	192.5
CC(=O)c1ccc(S(=O)(=O)N2CCOC23CCN(C)CC3)cc1 [Compound C0093M]	140.0	44.0	211.8
C=CCN1CCC2(CC1)OCCN2S(=O)(=O)c1ccc(C(C)=O)cc1 [Compound C0096M]	186.4	127.1	328.9
O=C1CN(Cc2ccccc2)C2(CCN(C3CCCCC3)CC2)N1 [C0137M(P7)]	180.8	55.8	193.8
CS(=O)(=O)c1ccc(S(=O)(=O)N2CCOC23CCNCC3)cc1 [Compound C0116M]	258.4	152.0	302.8
O=C1CN(Cc2ccccc2)C2(CCNCC2)N1 [Compound C0115M]	177.2	118.4	226.8
O=[N+]([O-])c1ccc(S(=O)(=O)N2CCC3(CC2)NCCS3)cc1 [Compound C0044]	173.7	59.1	280.1
CC(=O)c1ccc(S(=O)(=O)N2CCOC23CCN(CC2CC2)CC3)cc1 [Compound C0095M]	189.1	107.7	224.6
CS(=O)(=O)c1ccc(S(=O)(=O)N2CCOC23CCN(CC2CC2)CC3)cc1 [Compound C0126M]	181.8	108.5	265.3

SMILES	MOR agonist activity, [35S]GTPγS binding to Gαo [1] [%]	MOR agonist activity, [35S]GTPγS binding to Gαo [2] [%]	MOR agonist activity, [35S]GTPγS binding to Gαo [3] [%]
CCCCN1CCC2(CC1)OCCN2S(=O)(=O)c1ccc(C(C)=O)cc1 [Compound C0101M]	138.2	174.8	274.3
CC(=O)c1ccc(S(=O)(=O)N2CCC3(CC2)NCCS3)cc1 [Compound C0060]	166.5	143.9	218.9
CC(=O)c1ccc(S(=O)(=O)N2CC(CN(C)C)OC23CCN(CC2CC2)CC3)cc1 (stereo not drawn) [Compound C0128M]	197.8	63.9	286.0
O=C1CNC2(CCNCC2)N1Cc1ccccc1 [Compound C0114M]	114.0	35.9	144.3
COc1ccc(S(=O)(=O)N2CCC3(CC2)NCCO3)cc1 [Compound C0026]	207.2	21.2	288.4
CCN1CCC2(CC1)OCCN2S(=O)(=O)c1ccc(OC)cc1 [Compound C0089M]	234.5	81.9	295.3
CC(=O)c1ccc(S(=O)(=O)N2CC(CN(C)C)OC23CCNCC3)cc1 (stereo not drawn) [Compound C0118M]	166.2	79.2	261.5
CC(=O)c1ccc(S(=O)(=O)N2CC(CN(C)C)OC23CCN(C)CC3)cc1 (stereo not drawn) [Compound C0108M]	205.6	76.9	258.5
CCCCN1CCC2(CC1)OCCN2S(=O)(=O)c1ccc(OC)cc1 [Compound C0102M]	131.8	150.4	272.0
CN1CCC2(CC1)OCCN2S(=O)(=O)c1ccc(S(C)(=O)=O)cc1 [Compound C0106M]	171.8	117.2	240.7
CC(=O)c1ccc(S(=O)(=O)N2CCC3(CC2)NC(=O)CO3)cc1 [Compound C0087M]	262.8	142.5	329.6
CC(=O)c1ccc(S(=O)(=O)N2C(Cc3c[nH]cn3)C(=O)NC23CCNCC3)cc1 (stereo not drawn) [Compound C0119M]	105.7	35.1	167.8
CCc1ccc(S(=O)(=O)N2CCOC23CCN(CC2CC2)CC3)cc1 [Compound C0135M]	161.3	113.3	310.1
O=[N+]([O-])c1ccc(S(=O)(=O)N2CCC3(CC2)NCCO3)cc1 [Compound C0040]	145.8	90.4	308.3
CC(=O)c1ccc(S(=O)(=O)N2CCOC23CCN(CC(=O)O)CC3)cc1 [Compound C0100M]	173.6	195.6	245.9
